# Patent US7625887B2, “Receptor agonists” (Takeda Pharmaceutical Company Limited, priority 2003, dated 2009)
# How the values were obtained:
# NCI-H716 cells = assay: intracellular cAMP production increasing action in NCI-H716 cells; format: cell-based, human; conditions: bile acid 50 μM, 2 hrs; production amount in TLCA (50 μM) was 100%; Base 11
# [1] = system: guinea pig peripheral blood mononuclear cells; assay: TNF secretion in LPS-stimulated guinea pig peripheral blood mononuclear cells; format: cell-based; conditions: 16 hrs, bile acid 50 μM; non-addition: 160 with LPS, 13 without
# Description: (§1) The peripheral blood was taken from guinea pig, and mononuclear cell fraction was obtained by a density separation method using Ficoll-Paque PLUS (Amersham Pharmacia). The fraction at a concentration of 1×10^5/well was cultured for 16 hrs in the presence of […] LPS in a 96-well plate upon addition of bile acid or a test compound. The culture supernatant was collected and TNF and IL-6 in the supernatant were quantitated.
# The TNF secretion amount in the culture supernatant was measured in the same manner as in Experimental Example 7.
# [2] = system: rat intestine primary culture cells; assay: GLP-1 secretion from rat intestine primary culture cells; format: cell-based; conditions: bile acid 100 μM, 150 min
# Description: Terminal ileum and colon mucous membrane were removed from rat (Wistar, male, Charles River Japan, Inc.) and subjected to an enzyme treatment to give a cell dispersion according to the following method.
# The enzyme solution used was obtained by dissolving 5 mg/ml Collagenase (Sigma), 5 mg/ml Hyaluronidase (Sigma) and 0.5 mg/ml DNaseI (Sigma) in a medium. The medium used was Dulbecco's Modified Eagle Medium (DMEM, Invitrogen) supplemented with 4.5 g/l Glucose, 5% FBS (Invitrogen), 100 units/ml Penicillin (Invitrogen), 100 μg/ml Streptomycin (Invitrogen), 50 μg/ml Gentamicin (Invitrogen) and 20 mM Hepes (pH 7.3). After digestion by the enzyme solution at 37° C., the tissue sections were prepared into dispersed cells by passing through a pipette 7 times and the cells were collected. The collected cells were washed with a buffer (incubation buffer) obtained by adding 5.5 mM Glucose and 0.1% BSA to a modified Krebs-Ringer bicarbonate buffer (KRBH, 116 mM NaCl, 4.7 mM KCl, 1.2 mM KH2PO4, 1.2 mM MgSO4, 2.5 mM CaCl2, 25 mM NaHCO3, 24 mM HEPES, pH 7.3), and preincubated at 37° C. under 5% CO2 for 30 min. 0.1 μM Phorbol ester (Wako), 1% DPPIV inhibitor (Linco) and a test compound were added to the above-mentioned incubation buffer, and the obtained buffer was added to the cells after the aforementioned preincubation and incubated for 150 min. The culture supernatant was collected and cryopreserved. The concentration of GLP-1 released in the culture supernatant was measured using an ELISA kit (Linco).
# [3] = system: guinea pig peripheral blood mononuclear cells; assay: IL-6 secretion in LPS-stimulated guinea pig peripheral blood mononuclear cells; format: cell-based; conditions: 16 hrs, bile acid 50 μM; non-addition: 520 with LPS, 32 without
# Description: as §1
# The quantitation of IL-6 in the culture supernatant was performed using IL-6 dependent cell line 7TD1 (RIKEN Institute) with its growth promoting action as an index. First, 7TD1 cells were suspended in a basic medium (RPMI1640 (Invitrogen) supplemented with 1% non-essential amino acid (Invitrogen) and 55 μM 2-mercaptoethanol (Invitrogen)) and seeded in a 96-well plate at a concentration of 2×10^3/well. Immediately after seeding, peripheral blood mononuclear cell culture supernatant diluted with a dilution medium (the above-mentioned basic medium supplemented with 10% FBS) was added and the cells were cultured for 2 days. The IL-6 content was determined by measuring the growth of the 7TD1 cells in the obtained culture product using a CellTiter-Glo (Promega). As the standard sample, human recombinant IL-6 (Genzyme) was used.
# THP-TGR5 cells = assay: suppression of LPS induced TNF α secretion in THP-TGR5 cells; format: cell-based, human; conditions: bile acid 50 μM, non-addition: 11 with LPS, 2.7 without LPS
# Description: TGR5 high expression cells were established by introducing TGR5 gene into human macrophage cells line THP-1. According to a conventional method, pcDNA-TGR5 incorporating cDNA of human TGR5 in pcDNA3.1 (Invitrogen) was prepared. Then, THP-1 was cultured in a medium (RPMI1640 10% FBS), and pcDNA-TGR5 was introduced thereinto using lipofectamine (Gibco BRL) according to conventional methods. Thereafter, G418 (Gibco BRL) was added to the medium to select resistant strains, and cells line, THP-TGR5 that expresses TGR5 stably and highly was established.
# THP-TGR5 thus obtained was diluted to a concentration of 1×10^5/well and cultured overnight in a 96 well plate in the presence of 10^−8M phorbol ester (Wako Pure Chemical Industries, Ltd.). THP-TGR5 after culture was cultured for 1 hr in a medium containing a test compound or a control medium (0.1 ml) free of a test compound, 0.1 ml of a medium containing the same concentration of the test compound or a control medium free of the test compound, each of which containing LPS for induction of TNF α secretion was added (concentration at the time of addition 50 ng/ml) and the mixture was incubated at 37° C. under 5% CO2 for 14 hrs. The culture supernatant was collected and the TNF α content was measured with the growth suppressing effect on the TNF sensitive cell line L929 (RIKEN Institute) as an index.
# L929 cells were seeded in a 96 well plate at 1.2×10^4/well and incubated overnight at 37° C. under 5% CO2. The obtained culture product was cultured overnight in a medium (phenol red free Dulbecco's Modified Eagle Medium (Invitrogen) supplemented with 10% fetal bovine serum (Invitrogen), 100 U/ml penicillin and 100 μg/ml streptomycin), which contained the aforementioned THP-TGR5-containing culture supernatant and 2 μg/ml Actinomycin D (Wako Pure Chemical Industries, Ltd.). The TNF α content was determined by measuring the growth of the L929 cells in the obtained culture product using a Cell Counting Kit-8 (Wako Pure Chemical Industries, Ltd.). As the standard sample, human recombinant TNF α (Genzyme) was used.
structure (smiles),measurement,setting,value
"C[C@H](CCC(=O)NCCS(=O)(=O)O)[C@H]1CC[C@H]2[C@@H]3CC[C@@H]4C[C@H](O)CC[C@]4(C)[C@H]3CC[C@]12C [TLCA, taurolithocholic acid, reference compound]",cAMP production increasing activity (%),NCI-H716 cells,100%
same,TNF α,[1],60 pg/mL
same,GLP-1 (% relative to non-addition),[2],290 % relative to non-addition
same,IL-6,[3],260 pg/mL
same,TNF α,THP-TGR5 cells,0.22 ng/mL
